From the Kinase Knowledgebase extract (Sharma et al. 2016)

Legend:
PIK3CA (human) = PIK3CA (human) (UniProt P42336); test: Assessment of PIK3CA Kinase Activity
PIK3CB (Human) = PIK3CB (Human) (UniProt P42338); test: Assessment of PIK3CB Kinase Activity
PIK3CD (Human) = PIK3CD (Human) (UniProt O00329); test: Assessment of PIK3CD Kinase Activity
PIK3CG (human) = PIK3CG (human) (UniProt P48736); test: Assessment of PIK3CG Kinase Activity
Sequence of PIK3CG (human) (P48736 whole entry, looked up): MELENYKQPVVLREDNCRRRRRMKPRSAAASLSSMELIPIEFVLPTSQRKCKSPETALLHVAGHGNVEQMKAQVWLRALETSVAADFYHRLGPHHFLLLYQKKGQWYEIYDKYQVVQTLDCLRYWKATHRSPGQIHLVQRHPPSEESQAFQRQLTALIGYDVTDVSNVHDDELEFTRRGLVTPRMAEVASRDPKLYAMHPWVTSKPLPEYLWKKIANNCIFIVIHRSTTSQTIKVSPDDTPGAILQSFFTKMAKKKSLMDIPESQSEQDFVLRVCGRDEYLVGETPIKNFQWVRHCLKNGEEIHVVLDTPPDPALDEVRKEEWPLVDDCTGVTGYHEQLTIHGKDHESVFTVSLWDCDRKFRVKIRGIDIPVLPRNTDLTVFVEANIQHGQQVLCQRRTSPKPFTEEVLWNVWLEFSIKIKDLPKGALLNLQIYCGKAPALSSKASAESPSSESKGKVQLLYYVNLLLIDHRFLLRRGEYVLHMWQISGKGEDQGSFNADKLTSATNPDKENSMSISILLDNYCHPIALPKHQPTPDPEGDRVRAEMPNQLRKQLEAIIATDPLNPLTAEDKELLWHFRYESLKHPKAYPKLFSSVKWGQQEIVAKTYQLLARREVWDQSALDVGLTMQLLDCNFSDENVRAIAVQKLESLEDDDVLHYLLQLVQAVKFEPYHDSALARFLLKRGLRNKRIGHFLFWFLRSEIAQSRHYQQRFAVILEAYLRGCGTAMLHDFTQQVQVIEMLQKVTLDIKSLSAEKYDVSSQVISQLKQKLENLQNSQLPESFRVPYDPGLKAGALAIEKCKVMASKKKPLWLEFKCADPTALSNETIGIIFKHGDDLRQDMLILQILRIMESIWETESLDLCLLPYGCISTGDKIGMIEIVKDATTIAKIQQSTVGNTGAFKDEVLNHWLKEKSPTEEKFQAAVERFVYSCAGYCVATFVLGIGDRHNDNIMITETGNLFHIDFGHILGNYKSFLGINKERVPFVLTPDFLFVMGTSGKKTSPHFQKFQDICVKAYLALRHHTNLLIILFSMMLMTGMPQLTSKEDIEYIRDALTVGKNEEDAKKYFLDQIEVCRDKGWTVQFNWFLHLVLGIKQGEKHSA

Sequence of PIK3CD (Human) (O00329 whole entry, looked up): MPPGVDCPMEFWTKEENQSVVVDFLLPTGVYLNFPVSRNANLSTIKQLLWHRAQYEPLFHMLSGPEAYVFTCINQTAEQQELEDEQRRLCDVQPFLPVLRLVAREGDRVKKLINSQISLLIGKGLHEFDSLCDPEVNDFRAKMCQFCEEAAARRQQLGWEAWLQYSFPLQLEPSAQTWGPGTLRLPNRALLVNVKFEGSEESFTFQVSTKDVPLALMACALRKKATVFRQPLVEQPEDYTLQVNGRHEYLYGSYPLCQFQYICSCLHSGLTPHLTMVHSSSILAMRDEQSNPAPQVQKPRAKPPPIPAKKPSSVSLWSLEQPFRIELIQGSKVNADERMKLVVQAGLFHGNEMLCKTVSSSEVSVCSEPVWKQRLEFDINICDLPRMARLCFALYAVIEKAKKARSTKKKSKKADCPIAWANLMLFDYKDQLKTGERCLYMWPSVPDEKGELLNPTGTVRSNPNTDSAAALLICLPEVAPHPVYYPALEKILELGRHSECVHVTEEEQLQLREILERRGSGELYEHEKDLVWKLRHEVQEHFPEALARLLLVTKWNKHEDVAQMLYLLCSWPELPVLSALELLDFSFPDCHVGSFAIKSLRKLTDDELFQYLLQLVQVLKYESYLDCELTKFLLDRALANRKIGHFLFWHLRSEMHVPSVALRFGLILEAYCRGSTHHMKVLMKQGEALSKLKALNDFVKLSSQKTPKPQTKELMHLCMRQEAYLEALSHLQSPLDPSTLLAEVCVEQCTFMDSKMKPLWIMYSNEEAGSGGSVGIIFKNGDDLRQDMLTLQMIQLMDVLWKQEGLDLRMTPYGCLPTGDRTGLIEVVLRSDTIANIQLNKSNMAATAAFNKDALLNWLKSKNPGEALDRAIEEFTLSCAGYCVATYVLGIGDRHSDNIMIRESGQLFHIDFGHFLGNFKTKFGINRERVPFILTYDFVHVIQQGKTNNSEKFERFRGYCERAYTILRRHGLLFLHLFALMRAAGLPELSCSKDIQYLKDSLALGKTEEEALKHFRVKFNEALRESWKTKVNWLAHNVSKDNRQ
Sequence of PIK3CA (human) (P42336 whole entry, looked up): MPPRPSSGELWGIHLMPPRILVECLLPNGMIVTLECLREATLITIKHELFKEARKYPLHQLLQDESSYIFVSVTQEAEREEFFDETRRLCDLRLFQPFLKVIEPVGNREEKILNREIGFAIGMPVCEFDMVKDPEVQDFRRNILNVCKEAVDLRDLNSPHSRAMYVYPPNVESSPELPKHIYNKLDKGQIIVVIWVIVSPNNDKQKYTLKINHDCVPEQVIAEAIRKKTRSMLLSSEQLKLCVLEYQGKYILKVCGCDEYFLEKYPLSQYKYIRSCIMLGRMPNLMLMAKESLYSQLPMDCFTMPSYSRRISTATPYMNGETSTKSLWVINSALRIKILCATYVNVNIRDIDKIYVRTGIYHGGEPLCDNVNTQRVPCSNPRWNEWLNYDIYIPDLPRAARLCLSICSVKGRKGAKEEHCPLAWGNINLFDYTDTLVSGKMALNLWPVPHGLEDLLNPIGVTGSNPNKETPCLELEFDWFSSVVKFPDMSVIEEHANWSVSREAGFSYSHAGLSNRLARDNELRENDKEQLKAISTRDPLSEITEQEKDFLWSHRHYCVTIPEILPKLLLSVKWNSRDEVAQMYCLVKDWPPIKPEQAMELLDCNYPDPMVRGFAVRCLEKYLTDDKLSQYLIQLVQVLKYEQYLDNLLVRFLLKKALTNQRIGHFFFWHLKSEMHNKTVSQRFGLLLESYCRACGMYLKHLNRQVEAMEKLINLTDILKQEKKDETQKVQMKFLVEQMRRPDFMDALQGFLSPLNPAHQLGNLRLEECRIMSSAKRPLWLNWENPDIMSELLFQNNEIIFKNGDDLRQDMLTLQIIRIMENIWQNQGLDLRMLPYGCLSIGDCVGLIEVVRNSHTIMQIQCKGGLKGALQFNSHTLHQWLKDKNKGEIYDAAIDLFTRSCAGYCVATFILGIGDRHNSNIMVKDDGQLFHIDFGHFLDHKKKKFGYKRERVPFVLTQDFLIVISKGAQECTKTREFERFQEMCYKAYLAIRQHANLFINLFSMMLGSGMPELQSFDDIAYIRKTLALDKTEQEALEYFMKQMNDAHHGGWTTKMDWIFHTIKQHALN
Sequence of PIK3CB (Human) (P42338 whole entry, looked up): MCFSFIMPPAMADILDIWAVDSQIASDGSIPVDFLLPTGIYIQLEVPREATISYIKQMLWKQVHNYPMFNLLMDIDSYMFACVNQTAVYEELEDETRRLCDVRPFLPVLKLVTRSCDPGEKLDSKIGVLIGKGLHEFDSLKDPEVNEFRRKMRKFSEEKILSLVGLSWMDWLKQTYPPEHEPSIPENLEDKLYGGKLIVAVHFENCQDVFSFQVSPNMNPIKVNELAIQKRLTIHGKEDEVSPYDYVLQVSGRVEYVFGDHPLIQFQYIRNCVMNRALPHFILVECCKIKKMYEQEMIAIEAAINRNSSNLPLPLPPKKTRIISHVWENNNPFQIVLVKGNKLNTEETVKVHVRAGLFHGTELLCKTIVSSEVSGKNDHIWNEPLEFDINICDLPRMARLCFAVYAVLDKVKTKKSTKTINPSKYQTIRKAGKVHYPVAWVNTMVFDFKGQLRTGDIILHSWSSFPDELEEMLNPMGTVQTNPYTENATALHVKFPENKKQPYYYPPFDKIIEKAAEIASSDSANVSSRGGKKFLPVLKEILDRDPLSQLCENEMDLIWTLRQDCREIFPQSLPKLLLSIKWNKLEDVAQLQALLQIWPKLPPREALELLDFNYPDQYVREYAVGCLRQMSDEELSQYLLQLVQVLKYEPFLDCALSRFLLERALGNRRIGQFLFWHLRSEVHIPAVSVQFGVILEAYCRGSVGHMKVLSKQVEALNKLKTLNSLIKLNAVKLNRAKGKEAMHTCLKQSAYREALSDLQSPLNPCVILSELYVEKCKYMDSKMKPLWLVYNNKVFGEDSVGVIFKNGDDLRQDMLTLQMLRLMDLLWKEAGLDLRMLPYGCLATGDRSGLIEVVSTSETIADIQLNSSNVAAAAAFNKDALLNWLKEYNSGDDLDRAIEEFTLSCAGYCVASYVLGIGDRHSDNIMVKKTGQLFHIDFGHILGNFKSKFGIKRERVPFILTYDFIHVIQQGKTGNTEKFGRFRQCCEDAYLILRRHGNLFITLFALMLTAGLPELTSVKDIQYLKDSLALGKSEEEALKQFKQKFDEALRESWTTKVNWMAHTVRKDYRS

Compound	IC50 (PIK3CA (human))	IC50 (PIK3CB (Human))	IC50 (PIK3CD (Human))	IC50 (PIK3CG (human))
C[C@H](Nc1ncnc2cccnc12)c1cc2cccc(-c3cnn(C)c3)c2c(=O)n1C	> 10 µM	> 10 µM		
COc1ncc(-c2cccc3cc([C@H](C)Nc4ccnc5ccnn45)n(-c4ccccc4)c(=O)c23)cn1	> 10 µM	> 10 µM	< 0.1 µM	0.1 to 1 µM
C[C@H](Nc1ncc(C(F)(F)F)c(N)n1)c1cc2cccc(Cl)c2c(CCN2CCOCC2)n1	> 10 µM	> 10 µM	> 10 µM	> 10 µM
C[C@H](Nc1ncnc2[nH]cnc12)c1cc2scc(C(F)(F)F)c2c(=O)n1-c1ccccc1	0.1 to 1 µM	0.1 to 1 µM	0.1 to 1 µM	
C[C@H](Nc1ncnc2cccnc12)c1cc2scc(-c3cnn(C)c3)c2c(=O)n1-c1ccccc1	> 10 µM	> 10 µM		< 0.1 µM
C[C@H](Nc1ccnn2ccnc12)c1cc2scc(-c3cnn(C)c3)c2c(=O)n1-c1ccccc1	> 10 µM	> 10 µM	0.1 to 1 µM	0.1 to 1 µM
C[C@H](Nc1ncnc2cccnc12)c1cc2scc(C(F)(F)F)c2c(=O)n1-c1ccccc1	> 10 µM	> 10 µM	< 0.1 µM	
C[C@H](Nc1c(C#N)cnc2cccnc12)c1cc2cccc(-c3cnn(C)c3)c2c(=O)n1-c1ccccc1	> 10 µM	> 10 µM	> 10 µM	
C[C@H](Nc1ncnc2cccnc12)c1cc2cccc(-c3cnc(N)nc3)c2c(=O)n1-c1ccccc1	0.1 to 1 µM		< 0.1 µM	< 0.1 µM
C[C@H](Nc1nc(N)nc2cccnc12)c1cc2cccc(-c3cnc4ccccc4c3)c2c(=O)n1-c1ccccc1	0.1 to 1 µM		< 0.1 µM	< 0.1 µM
COc1ncc(-c2cccc3cc([C@H](C)Nc4nc(OC)nc5cccnc45)n(-c4ccccc4)c(=O)c23)cn1	> 10 µM	> 10 µM	> 10 µM	> 10 µM
CNc1nc(N[C@@H](C)c2cc3cccc(-c4cnc(C)nc4)c3c(=O)n2-c2ccccc2)c2ncccc2n1	> 10 µM	> 10 µM	0.1 to 1 µM	0.1 to 1 µM
C[C@H](Nc1nc(Cl)nc2cccnc12)c1cc2cccc(C(F)(F)F)c2c(=O)n1-c1ccccc1	> 10 µM	> 10 µM		0.1 to 1 µM
Cc1nsc2cc(C(C)Nc3ncnc4cccnc34)n(-c3ccccc3)c(=O)c12 (configuration not stated)	> 10 µM	> 10 µM	0.1 to 1 µM	
Cc1ccnc2cc(C(C)Nc3ncnc4cccnc34)n(-c3ccccc3)c(=O)c12 (configuration not stated)	> 10 µM		< 0.1 µM	0.1 to 1 µM
C[C@H](Nc1c(C#N)cnc2cccnc12)c1cc2cccc(C(F)(F)F)c2c(=O)n1-c1ccccc1	> 10 µM	> 10 µM	> 10 µM	

Compound	IC50 (PIK3CA (human))	IC50 (PIK3CB (Human))	IC50 (PIK3CD (Human))	IC50 (PIK3CG (human))
COc1cncc(-c2cccc3cc([C@H](C)Nc4nc(N)nc5cccnc45)n(-c4ccccc4)c(=O)c23)c1	0.1 to 1 µM		< 0.1 µM	< 0.1 µM
C[C@H](Nc1ncnn2cncc12)c1cc2cccc(C(F)(F)F)c2c(=O)n1-c1ccccc1	> 10 µM	> 10 µM		> 10 µM
Cc1cn2nccc(N[C@@H](C)c3cc4cccc(-c5cnn(C)c5)c4c(=O)n3-c3ccccc3)c2n1	> 10 µM	> 10 µM		
Cc1cn2nccc(N[C@@H](C)c3cc4cccc(C(F)(F)F)c4c(=O)n3-c3ccccc3)c2n1	> 10 µM	> 10 µM	> 10 µM	
COc1ccc(CNc2nc(N[C@@H](C)c3cc4cccc(-c5cnc(OC)nc5)c4c(=O)n3-c3ccccc3)c3ncccc3n2)cc1	> 10 µM		0.1 to 1 µM	0.1 to 1 µM
C[C@H](Nc1nc(N)nc2cccnc12)c1cc2cccc(-c3cnn(C)c3)c2c(=O)n1C1CC1	0.1 to 1 µM		< 0.1 µM	< 0.1 µM
Cc1ccnc2cc(C(C)Nc3ncnc4cccnc34)[nH]c(=O)c12 (configuration not stated)	> 10 µM	> 10 µM		> 10 µM
Cc1cc(-c2cccc3cc([C@H](C)Nc4nc(N)nc5cccnc45)n(-c4ccccc4)c(=O)c23)ccn1	0.1 to 1 µM		< 0.1 µM	< 0.1 µM
Cc1cncc(-c2cccc3cc([C@H](C)Nc4nc(N)nc5cccnc45)n(-c4ccccc4)c(=O)c23)c1	0.1 to 1 µM		< 0.1 µM	< 0.1 µM
Cc1cc(-c2cccc3nc([C@H](C)Nc4nc(N)nc5cccnc45)n(-c4ccccc4)c(=O)c23)ccn1	0.1 to 1 µM		< 0.1 µM	< 0.1 µM
Cc1cc(-c2cccc3cc([C@H](C)Nc4ncnc5cccnc45)n(-c4ccccc4)c(=O)c23)ccn1	0.1 to 1 µM		< 0.1 µM	< 0.1 µM
C[C@H](Nc1nc(Cl)nc2scnc12)c1cc2cccc(C(F)(F)F)c2c(=O)n1-c1ccccc1	> 10 µM		< 0.1 µM	< 0.1 µM
C[C@H](NCc1cnc2cccnn12)c1cc2cccc(Cl)c2c(=O)n1-c1ccccc1	> 10 µM	> 10 µM		> 10 µM
Cc1ncc(-c2cccc3cc([C@H](C)Nc4nc(N)nc5cccnc45)n(-c4ccccc4)c(=O)c23)s1	0.1 to 1 µM		< 0.1 µM	< 0.1 µM
C[C@H](Nc1cc(Cl)nn2ccnc12)c1cc2cccc(-c3cnn(C)c3)c2c(=O)n1C1CC1	> 10 µM	> 10 µM		
COc1ncc(-c2cccc3cc([C@H](C)Nc4cc(O)nc5cccnc45)n(-c4ccccc4)c(=O)c23)cn1	> 10 µM	> 10 µM		> 10 µM

Second part, the molecule after the results:

IC50 (PIK3CA (human))	IC50 (PIK3CB (Human))	IC50 (PIK3CD (Human))	IC50 (PIK3CG (human))	Compound
> 10 µM	> 10 µM		< 0.1 µM	C[C@H](Nc1nc(Cl)nc2cccnc12)c1cc2cccc(Cl)c2c(=O)n1-c1ccccc1
> 10 µM	> 10 µM	> 10 µM		C[C@H](Nc1c(C#N)cnc2cccnc12)c1cc2cccc(Cl)c2c(=O)n1-c1cccc(F)c1
> 10 µM	> 10 µM	0.1 to 1 µM	0.1 to 1 µM	C[C@H](Nc1cc(Cl)nn2ccnc12)c1cc2cccc(-c3cnn(C)c3)c2c(=O)n1-c1cccc(F)c1
> 10 µM	> 10 µM		> 10 µM	C[C@H](Nc1cc(Cl)ncc1C#N)c1cc2cccc(Cl)c2c(=O)n1-c1ccccc1
> 10 µM		< 0.1 µM	< 0.1 µM	C[C@H](Nc1nc(N)ncc1C(F)(F)F)c1cc2cccc(C(F)(F)F)c2c(=O)n1-c1cccc(F)c1
> 10 µM	> 10 µM	> 10 µM	> 10 µM	C[C@H](Nc1ncnc2cc(F)c(F)cc12)c1cc2cccc(Cl)c2c(=O)n1-c1ccccc1
> 10 µM	> 10 µM			C[C@H](Nc1nc(Cl)nc2nccnc12)c1cc2cccc(Cl)c2c(=O)n1-c1ccccc1
> 10 µM	> 10 µM	> 10 µM	> 10 µM	COc1nc(N[C@@H](C)c2cc3cccc(Cl)c3c(=O)n2-c2ccccc2)c2ncccc2n1
> 10 µM	> 10 µM	> 10 µM		COc1nc(N[C@@H](C)c2cc3cccc(C(F)(F)F)c3c(=O)n2-c2cccc(F)c2)c2ncccc2n1
> 10 µM	> 10 µM			Cc1cn2nccc(N[C@@H](C)c3cc4cccc(Cl)c4c(=O)n3-c3cccc(F)c3)c2n1
> 10 µM	> 10 µM		> 10 µM	C[C@H](Nc1nc(Cl)nc2nc(Cl)cnc12)c1cc2cccc(Cl)c2c(=O)n1-c1ccccc1
> 10 µM	> 10 µM			C[C@H](Nc1cc(O)nc2cccnc12)c1cc2cccc(Cl)c2c(=O)n1-c1ccccc1
0.1 to 1 µM	0.1 to 1 µM		< 0.1 µM	C[C@H](Nc1ncnc2cccnc12)c1cc2c(F)ccc(Cl)c2c(=O)n1-c1ccccc1
> 10 µM	> 10 µM	> 10 µM	> 10 µM	C[C@H](Nc1nc(O)nc2[nH]cnc12)c1cc2cccc(C(F)(F)F)c2c(=O)n1-c1cccc(F)c1
> 10 µM	> 10 µM	> 10 µM		Cc1nc2c(N[C@@H](C)c3cc4cccc(C(F)(F)F)c4c(=O)n3-c3ccccc3)ncnc2s1
> 10 µM		< 0.1 µM	< 0.1 µM	C[C@H](Nc1cc(N)nc2ccnn12)c1cc2cccc(Cl)c2c(=O)n1-c1ccccc1
> 10 µM		< 0.1 µM	< 0.1 µM	C[C@H](Nc1nc(N)ncc1C(F)(F)F)c1cc2cccc(C(F)(F)F)c2c(=O)n1-c1ccccc1
> 10 µM		< 0.1 µM	0.1 to 1 µM	C[C@H](Nc1ncnc2ccnn12)c1cc2cccc(Cl)c2c(=O)n1-c1cccc(F)c1
> 10 µM	> 10 µM		> 10 µM	C[C@H](Nc1ncc2[nH]cnc2n1)c1cc2cccc(Cl)c2c(=O)n1-c1ccccc1
> 10 µM		0.1 to 1 µM	< 0.1 µM	C[C@H](Nc1nc(N)nc2nccnc12)c1cc2cccc(Cl)c2c(=O)n1-c1ccccc1
> 10 µM	> 10 µM		> 10 µM	C[C@H](Nc1ncnn2cncc12)c1cc2cccc(Cl)c2c(=O)n1-c1cccc(F)c1
> 10 µM	> 10 µM	0.1 to 1 µM		C[C@H](Nc1cc(Cl)nn2ccnc12)c1cc2cccc(C(F)(F)F)c2c(=O)n1-c1cccc(F)c1
> 10 µM		< 0.1 µM	< 0.1 µM	C[C@H](Nc1ncnc2[nH]nc(C#N)c12)c1cc2cccc(Cl)c2c(=O)n1-c1ccccc1
> 10 µM	> 10 µM	> 10 µM		C[C@H](Nc1c(C#N)cnc2cccnc12)c1cc2cccc(Cl)c2c(=O)n1-c1ccccc1
0.1 to 1 µM		< 0.1 µM	< 0.1 µM	Cc1cccc2cc([C@H](C)Nc3nc(N)nc4cccnc34)n(-c3cccc(F)c3)c(=O)c12
> 10 µM	> 10 µM	0.1 to 1 µM		C[C@H](Nc1ncnc(N)n1)c1cc2cccc(Cl)c2c(=O)n1-c1cccc(F)c1
> 10 µM	> 10 µM			Cc1cn2nccc(N[C@@H](C)c3cc4cccc(Cl)c4c(=O)n3-c3ccccc3)c2n1
> 10 µM	> 10 µM		0.1 to 1 µM	C[C@H](Nc1nc(N)nc2cccnc12)c1cc2cccc(N(C)C)c2c(=O)n1-c1ccccc1
